This is an account of results in paper PMC5216352, “Disulfide isomerase-like protein AtPDIL1–2 is a good candidate for trichlorophenol phytodetoxification” (Scientific Reports, 2017).

The target in the assay is T1, AtPDIL1-2 (Arabidopsis thaliana, UniProt Q9SRG3).
T1 construct: gene PDIL1-2; full-length cDNA (1527 bp ORF, start codon to C-terminal KDEL) in pET-32a, His-tagged fusion about 72 kDa, E. coli, Ni-NTA purified
T1 sequence (Q9SRG3 1-508): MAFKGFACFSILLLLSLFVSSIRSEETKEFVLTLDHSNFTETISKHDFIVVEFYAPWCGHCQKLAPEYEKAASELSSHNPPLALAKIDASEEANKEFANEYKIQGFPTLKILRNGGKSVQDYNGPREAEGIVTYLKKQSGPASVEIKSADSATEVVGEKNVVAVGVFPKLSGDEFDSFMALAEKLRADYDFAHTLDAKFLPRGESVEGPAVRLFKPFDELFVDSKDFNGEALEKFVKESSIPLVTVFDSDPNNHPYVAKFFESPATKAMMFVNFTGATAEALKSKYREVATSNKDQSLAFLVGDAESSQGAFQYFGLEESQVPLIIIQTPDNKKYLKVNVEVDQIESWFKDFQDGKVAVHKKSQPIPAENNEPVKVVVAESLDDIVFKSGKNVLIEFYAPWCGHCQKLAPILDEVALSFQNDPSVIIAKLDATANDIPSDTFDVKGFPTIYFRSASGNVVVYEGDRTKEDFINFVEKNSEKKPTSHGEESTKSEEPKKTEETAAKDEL
Kind of assay: RNase A oxidative refolding assay, cCMP hydrolysis at […] nm. Format: biochemical. The note with it: 3.5 uM protein, 10 uM reduced denatured RNase, 4.5 mM cCMP, 1 mM GSH, 0.2 mM GSSG, pH 8; TCP concentration not given.

In turn, `Oc1c(Cl)cc(Cl)cc1Cl` [2,4,6-TCP] gave a maximum inhibition of 16%.
